Test results as given in patent US12458700B2, “Amine-containing transfection reagents and methods for making and using same” (Life Technologies Corporation, priority 2010, dated 2025).

System: CSNK2A1
Assay: CSNK2A1 siRNA knockdown by qPCR in Hela, primary cortical neurons and primary hippocampal neurons
Type: cell-based, human, rat
Conditions: lipoplex with cholesterol 1:0.5, 30 nM siRNA, 24 h, FIG. 5
Description: Some lipids of the present invention were formulated into lipid compositions, which also comprise cholesterol or DOPE, buffers and ethanol. Animal origin-free cholesterol was purchased from Sigma-Aldrich (St Louis, MO) and DOPE was purchased from Avanti Lipids (Alabaster, AL). Silencer® Select CSNK2A1 siRNA and Silencer® Select negative control siRNA (cat #4390824 siRNA id#s3637 and cat #4390843) having the antisense sequence […] (SEQ ID NO:2) and […] (SEQ ID NO:3), respectively, were resuspended with nuclease-free water to a stock concentration of 50 μM, which were further diluted to meet downstream experiments and is commercially available from Life Technologies (Carlsbad, CA).
For compounds 83 and 67, the dry powder lipids were re-suspended in ethanol at a final concentration of 1 mg/ml and either used as lipid alone (Compound 83) or combined with cholesterol in 1:0.5 ratio (Compound 67). The formulations tested were made as described in Table 3
Primary rat cortex neuronal cells were purchased from GIBCO (Cat. No. A10840) and maintained in Neurobasal™ medium (cat #21103-049) supplemented with 2% B-27® Serum-free (50× cat #17504-044) and 0.5 mM GlutaMAX™ (cat #35050-061). […]

Q: For `CCCCCCCCCCCCNC(=O)CNCCCN(CCCCNCCCN(CC(=O)NCCCCCCCCCCCC)CC(=O)NCCCCCCCCCCCC)CC(=O)NCCCCCCCCCCCC` [Compound 67], which “relative percent of CSNK2A1 remaining activity normalized to negative control” value is on record?
A: do possess activity in vitro
